Experimental findings from ChEMBL document CHEMBL5154659, “A3 adenosine receptor agonists containing dopamine moieties for enhanced interspecies affinity” (Eur J Med Chem, 2022) are described below.

For one assay, the target named is T1, Adenosine receptor A3 (Mus musculus, UniProt Q61618).
T1 sequence (Q61618 whole entry): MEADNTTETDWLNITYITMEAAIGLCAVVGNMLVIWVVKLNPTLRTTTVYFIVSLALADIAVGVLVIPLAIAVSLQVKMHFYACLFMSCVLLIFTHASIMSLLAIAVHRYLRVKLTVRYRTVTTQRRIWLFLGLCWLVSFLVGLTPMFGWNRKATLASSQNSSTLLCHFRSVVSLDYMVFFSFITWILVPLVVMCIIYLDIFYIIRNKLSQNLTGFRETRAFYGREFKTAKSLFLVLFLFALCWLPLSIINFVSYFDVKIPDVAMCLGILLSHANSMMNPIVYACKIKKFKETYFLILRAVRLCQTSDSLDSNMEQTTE
Nature of the assay: Displacement of [125I] N6-4-amino-3-iodobenzyl adenosine 5-N-methyluronamide from mouse A3A receptor stably expressed in HEK293 cell membrane by radioligand inhibition assay. The format is cell membranes.
Conditions: not given
On the technique in general: Displacement assays read how much labelled ligand stays bound in the presence of the test substance.
Take `CNC(=O)[C@@]12C[C@@H]1[C@@H](n1cnc3c(NCCc4ccccc4)nc(C#Cc4ccc(Cl)s4)nc31)[C@H](O)[C@@H]2O`: the affinity, expressed as Ki, was 1.91 nM.
As for `CNC(=O)[C@@]12C[C@@H]1[C@@H](n1cnc3c(NCCc4ccc(O)c(OC)c4)nc(C#Cc4ccc(F)c(F)c4)nc31)[C@H](O)[C@@H]2O`, the affinity corresponds to a Ki of 3.31 nM.
For the compound `CNC(=O)[C@@]12C[C@@H]1[C@@H](n1cnc3c(NCCc4ccc(O)c(OC)c4)nc(C#Cc4ccc(Br)s4)nc31)[C@H](O)[C@@H]2O`, the inhibition constant Ki (commonly the dissociation constant of the complex between target and ligand, obtained from inhibition or displacement) came out at 1.32 nM.
On the same count and under the same terms, the result for `CNC(=O)[C@@]12C[C@@H]1[C@@H](n1cnc3c(NCCc4ccc(OC)c(O)c4)nc(OCC4CC4)nc31)[C@H](O)[C@@H]2O` reads 11.9 nM; that for `CNC(=O)[C@@]12C[C@@H]1[C@@H](n1cnc3c(NCCc4ccc(O)c(OC)c4)nc(C#Cc4ccco4)nc31)[C@H](O)[C@@H]2O`, 1.56 nM.
The compound `CNC(=O)[C@@]12C[C@@H]1[C@@H](n1cnc3c(NCCc4ccc(O)c(OC)c4)nc(C#Cc4ccc(F)s4)nc31)[C@H](O)[C@@H]2O` came in with a Ki of 1.46 nM.

In the next assay the target is T2, Adenosine receptor A1 (Mus musculus, UniProt Q60612).
T2 sequence (Q60612 whole entry): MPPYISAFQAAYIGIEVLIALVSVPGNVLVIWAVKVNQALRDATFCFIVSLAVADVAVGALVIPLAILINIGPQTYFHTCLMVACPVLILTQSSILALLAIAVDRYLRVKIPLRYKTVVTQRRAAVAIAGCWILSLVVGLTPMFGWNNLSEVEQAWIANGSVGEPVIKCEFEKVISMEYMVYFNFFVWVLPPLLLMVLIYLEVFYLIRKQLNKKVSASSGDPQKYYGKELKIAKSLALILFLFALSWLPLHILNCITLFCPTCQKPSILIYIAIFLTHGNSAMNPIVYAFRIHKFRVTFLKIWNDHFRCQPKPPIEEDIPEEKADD
Nature of the assay: Displacement of [3H] N6-R-phenylisopropyladenosine from mouse A1A receptor stably expressed in HEK293 cell membrane by radioligand inhibition assay. It is filed as cell membranes.
Conditions: not given
Turning to `CNC(=O)[C@@]12C[C@@H]1[C@@H](n1cnc3c(NCCc4ccc(O)c(OC)c4)nc(C#Cc4ccc(F)c(F)c4)nc31)[C@H](O)[C@@H]2O`, affinity was put at a Ki of 5800 nM.
`CNC(=O)[C@@]12C[C@@H]1[C@@H](n1cnc3c(NCCc4ccc(OC)c(O)c4)nc(OCC4CC4)nc31)[C@H](O)[C@@H]2O` registered a Ki of 151 nM.

Another assay deals with T3, Adenosine receptor A2a (Homo sapiens, UniProt P29274). Nature of the assay: Binding affinity to human adenosine A2A receptor expressed in human HEK293 cell membrane at 10 uM by radioligand inhibition assay.
T3 sequence (P29274 whole entry): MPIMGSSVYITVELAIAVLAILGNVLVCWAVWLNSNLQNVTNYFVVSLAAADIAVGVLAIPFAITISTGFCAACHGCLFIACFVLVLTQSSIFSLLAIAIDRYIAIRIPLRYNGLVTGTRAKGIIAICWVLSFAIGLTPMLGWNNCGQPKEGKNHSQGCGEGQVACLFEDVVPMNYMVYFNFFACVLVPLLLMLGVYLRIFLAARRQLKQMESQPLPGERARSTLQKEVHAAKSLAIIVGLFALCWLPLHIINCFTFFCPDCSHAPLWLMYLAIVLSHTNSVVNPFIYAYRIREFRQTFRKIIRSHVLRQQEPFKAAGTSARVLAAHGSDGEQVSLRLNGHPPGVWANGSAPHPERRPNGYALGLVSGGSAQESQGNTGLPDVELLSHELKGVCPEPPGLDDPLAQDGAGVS
Conditions: not given
The format is cell membranes.
In the case of `CNC(=O)[C@@]12C[C@@H]1[C@@H](n1cnc3c(NCCc4ccccc4)nc(C#Cc4ccc(Cl)s4)nc31)[C@H](O)[C@@H]2O`, the inhibition – broadly, the change of the read-out against control, counted positive when it falls – was determined as 49%.
Compound `CNC(=O)[C@@]12C[C@@H]1[C@@H](n1cnc3c(NCCc4ccc(O)c(OC)c4)nc(C#Cc4ccc(F)c(F)c4)nc31)[C@H](O)[C@@H]2O` came in with an inhibition of 9%.
`CNC(=O)[C@@]12C[C@@H]1[C@@H](n1cnc3c(NCCc4ccc(O)c(OC)c4)nc(C#Cc4ccc(Br)s4)nc31)[C@H](O)[C@@H]2O` yielded an inhibition of 43%.
In the case of `CNC(=O)[C@@]12C[C@@H]1[C@@H](n1cnc3c(NCCc4ccc(O)c(OC)c4)nc(C#Cc4ccco4)nc31)[C@H](O)[C@@H]2O`, the inhibition stood at 32%.
For `CNC(=O)[C@@]12C[C@@H]1[C@@H](n1cnc3c(NCCc4ccc(O)c(OC)c4)nc(C#Cc4ccc(F)s4)nc31)[C@H](O)[C@@H]2O`, the inhibition is 32%.

The target of a further assay is T4, Adenosine receptor A3 (Homo sapiens, UniProt P0DMS8).
T4 sequence (P0DMS8 whole entry): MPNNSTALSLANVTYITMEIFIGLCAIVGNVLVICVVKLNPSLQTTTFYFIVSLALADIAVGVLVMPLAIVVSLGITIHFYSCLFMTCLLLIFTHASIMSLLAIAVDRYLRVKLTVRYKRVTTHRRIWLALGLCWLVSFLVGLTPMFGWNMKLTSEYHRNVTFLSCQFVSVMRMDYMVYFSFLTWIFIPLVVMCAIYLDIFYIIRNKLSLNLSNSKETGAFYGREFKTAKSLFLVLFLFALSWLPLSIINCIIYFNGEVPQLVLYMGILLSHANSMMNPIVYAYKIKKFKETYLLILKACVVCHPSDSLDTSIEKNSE
Nature of the assay: Agonist activity at human adenosine A3A receptor stably expressed in HEK293 cells assessed as mini G-alpha recruitment potency by luciferase based NanoBiT assay. The format is functional, cell-based.
Conditions: not given
For `CNC(=O)[C@@]12C[C@@H]1[C@@H](n1cnc3c(NCCc4ccccc4)nc(C#Cc4ccc(Cl)s4)nc31)[C@H](O)[C@@H]2O`, the concentration for a half-maximal effect (EC50) (in general, the midpoint of the concentration-response curve) worked out at 64.9 nM.
With `CNC(=O)[C@@]12C[C@@H]1[C@@H](n1cnc3c(NCCc4ccc(O)c(OC)c4)nc(C#Cc4ccc(F)s4)nc31)[C@H](O)[C@@H]2O`, the half-maximal effective concentration (EC50) came out at 23.7 nM.

The target in another assay is T4, Adenosine receptor A3. Put plainly: Agonist activity at human adenosine A3A receptor stably expressed in HEK293 cells assessed as beta arrestin 2 recruitment potency by luciferase based NanoBiT assay.
Conditions: not given
The format is functional, cell-based. In general terms: Activated receptors often draw arrestin, which recruitment assays turn into a signal.
As for `CNC(=O)[C@@]12C[C@@H]1[C@@H](n1cnc3c(NCCc4ccccc4)nc(C#Cc4ccc(Cl)s4)nc31)[C@H](O)[C@@H]2O`, the EC50 was found to be 64 nM.
Turning to `CNC(=O)[C@@]12C[C@@H]1[C@@H](n1cnc3c(NCCc4ccc(O)c(OC)c4)nc(C#Cc4ccc(F)s4)nc31)[C@H](O)[C@@H]2O`, the EC50 was 24.9 nM.

A further assay deals with T5, Adenosine receptor A1 (Homo sapiens) (UniProt P30542).
T5 sequence (whole entry): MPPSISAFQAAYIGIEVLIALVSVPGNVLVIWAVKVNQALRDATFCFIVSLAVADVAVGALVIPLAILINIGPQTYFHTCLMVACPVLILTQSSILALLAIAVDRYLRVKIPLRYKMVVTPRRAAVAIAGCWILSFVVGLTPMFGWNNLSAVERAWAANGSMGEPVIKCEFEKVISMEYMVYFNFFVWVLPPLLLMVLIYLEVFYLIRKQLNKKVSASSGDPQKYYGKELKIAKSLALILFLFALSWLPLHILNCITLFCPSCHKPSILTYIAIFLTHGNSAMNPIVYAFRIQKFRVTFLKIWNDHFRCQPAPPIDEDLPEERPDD
Nature of the assay: Binding affinity to human adenosine A1A receptor expressed in human HEK293 cell membrane at 10 uM by radioligand inhibition assay. It is filed as cell membranes.
Conditions: not given
For the compound `CNC(=O)[C@@]12C[C@@H]1[C@@H](n1cnc3c(NCCc4ccccc4)nc(C#Cc4ccc(Cl)s4)nc31)[C@H](O)[C@@H]2O`, the inhibition came out at 4%.
Still for that read-out and setting: the result for `CNC(=O)[C@@]12C[C@@H]1[C@@H](n1cnc3c(NCCc4ccc(O)c(OC)c4)nc(C#Cc4ccc(F)c(F)c4)nc31)[C@H](O)[C@@H]2O` reads 11%.
Consider `CNC(=O)[C@@]12C[C@@H]1[C@@H](n1cnc3c(NCCc4ccc(O)c(OC)c4)nc(C#Cc4ccco4)nc31)[C@H](O)[C@@H]2O`, for which the inhibition turned out to be 9%.
`CNC(=O)[C@@]12C[C@@H]1[C@@H](n1cnc3c(NCCc4ccc(O)c(OC)c4)nc(C#Cc4ccc(F)s4)nc31)[C@H](O)[C@@H]2O` showed an inhibition of 2%.

The next assay concerns the target T4, Adenosine receptor A3. Nature of the assay: Displacement of [125I] N6-(4-amino-3-iodobenzyl)adenosine-5'-N-methyluronamide from human A3A receptor stably expressed in HEK293 cell membrane by radioligand inhibition assay. The format is cell membranes.
Conditions: not given
The compound `CNC(=O)[C@@]12C[C@@H]1[C@@H](n1cnc3c(NCCc4ccccc4)nc(C#Cc4ccc(Cl)s4)nc31)[C@H](O)[C@@H]2O` registered a Ki of 3.37 nM.
Turning to `CNC(=O)[C@@]12C[C@@H]1[C@@H](n1cnc3c(NCCc4ccc(O)c(OC)c4)nc(C#Cc4ccc(F)c(F)c4)nc31)[C@H](O)[C@@H]2O`, the Ki was 4.98 nM.
`CNC(=O)[C@@]12C[C@@H]1[C@@H](n1cnc3c(NCCc4ccc(O)c(OC)c4)nc(C#Cc4ccc(Br)s4)nc31)[C@H](O)[C@@H]2O` came in with a Ki of 3.41 nM.
In turn, `CNC(=O)[C@@]12C[C@@H]1[C@@H](n1cnc3c(NCCc4ccc(O)c(OC)c4)nc(C#Cc4ccco4)nc31)[C@H](O)[C@@H]2O` came in with a Ki of 3.25 nM.
`CNC(=O)[C@@]12C[C@@H]1[C@@H](n1cnc3c(NCCc4ccc(O)c(OC)c4)nc(C#Cc4ccc(F)s4)nc31)[C@H](O)[C@@H]2O` came in with a Ki of 3.31 nM.

For a further assay, the target named is T3, Adenosine receptor A2a. Put plainly: Displacement of [3H]-2-p-2-(carboxyethyl)phenyl-ethylamino-5'-N-ethylcarboxamidoadenosine from human A2A receptor stably expressed in HEK293 cell membrane by radioligand inhibition assay.
Conditions: not given
The format is cell membranes.
For the compound `CNC(=O)[C@@]12C[C@@H]1[C@@H](n1cnc3c(NCCc4ccc(OC)c(O)c4)nc(OCC4CC4)nc31)[C@H](O)[C@@H]2O`, the Ki was 4720 nM.

In the next assay the target is T6, Adenosine receptor A1 (Mus musculus) (UniProt Q60612).
T6 sequence (whole entry): T2 sequence (Q60612 whole entry)
Put plainly: Binding affinity to mouse adenosine A1A receptor expressed in human HEK293 cell membrane by radioligand inhibition assay. The note with it: concentration not given here. It is filed as cell membranes. Also noted: concentration or dose not given beside the values.
Turning to `CNC(=O)[C@@]12C[C@@H]1[C@@H](n1cnc3c(NCCc4ccccc4)nc(C#Cc4ccc(Cl)s4)nc31)[C@H](O)[C@@H]2O`, the inhibition stood at 42%.
Regarding `CNC(=O)[C@@]12C[C@@H]1[C@@H](n1cnc3c(NCCc4ccc(O)c(OC)c4)nc(C#Cc4ccco4)nc31)[C@H](O)[C@@H]2O`, the inhibition is 40%.
For the compound `CNC(=O)[C@@]12C[C@@H]1[C@@H](n1cnc3c(NCCc4ccc(O)c(OC)c4)nc(C#Cc4ccc(F)s4)nc31)[C@H](O)[C@@H]2O`, the inhibition was found to be 48%.
